Laboratory results published in the supplement of paper PMC10307832.

Tests used:
Experiment in all cases: relative viability (nuclei count vs DMSO), 5 days (fraction); higher = more cells survive
[1] = test system: BEN
In short: (§1)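 Lung cancer cell lines in 1536-well plates were dosed by pin tool the day after seeding, either with one drug alone or with a fixed anchor-drug dose plus five library-drug doses (not always all listed) in √10 steps. After 5 days, cells were fixed and their nuclei stained in one step (final 0.05% Triton X-100, 1% formaldehyde, 1 ug/ml Hoechst), then counted on 4× images. Relative viability is the nuclei count in treated wells divided by that in vehicle wells. Values are medians of duplicate plates.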

[2] = test system: EKVX
In short: as §1

[3] = test system: EMC-BAC-2
In short: as §1

[4] = test system: EPLC-272H
In short: as §1

[5] = test system: NCI-H596
In short: as §1

[6] = test system: NCI-H460
In short: as §1

[7] = test system: LXF-289
In short: as §1

[8] = test system: NCI-H2126
In short: as §1

[9] = test system: NCI-H1650
In short: as §1

[10] = test system: NCI-H358
In short: as §1

[11] = test system: 201T
In short: as §1

[12] = test system: SW 1573; settings: first compound 0.08 µM
In short: as §1

O=c1[nH]c2ccccc2n1C1CCN(CCCC(c2ccc(F)cc2)c2ccc(F)cc2)CC1 [Pimozide] + Nc1nc2[nH]cc(CCc3ccc(C(=O)N[C@@H](CCC(=O)O)C(=O)O)cc3)c2c(=O)[nH]1 [Pemetrexed] (partner 0.2 µM)
relative viability ([1]; first compound 0.08 µM): 0.856
relative viability ([1]; first compound 0.253 µM): 0.689
relative viability ([1]; first compound 0.8 µM): 0.766
relative viability ([1]; first compound 2.53 µM): 0.708
relative viability ([1]; first compound 8 µM): 0.837
relative viability ([2]; first compound 0.253 µM): 0.336
relative viability ([2]; first compound 0.8 µM): 0.362
relative viability ([2]; first compound 2.53 µM): 0.397
relative viability ([2]; first compound 8 µM): 0.412
relative viability ([3]; first compound 0.08 µM): 0.464
relative viability ([3]; first compound 0.253 µM): 0.462
relative viability ([3]; first compound 0.8 µM): 0.392
relative viability ([3]; first compound 2.53 µM): 0.428
relative viability ([3]; first compound 8 µM): 0.438
relative viability ([4]; first compound 0.08 µM): 0.319
relative viability ([4]; first compound 0.253 µM): 0.285
relative viability ([4]; first compound 0.8 µM): 0.271
relative viability ([4]; first compound 2.53 µM): 0.179
relative viability ([4]; first compound 8 µM): 0.238
relative viability ([5]; first compound 0.08 µM): 0.538
relative viability ([5]; first compound 0.253 µM): 0.487
relative viability ([5]; first compound 0.8 µM): 0.534
relative viability ([5]; first compound 2.53 µM): 0.436
relative viability ([5]; first compound 8 µM): 0.479
relative viability ([6]; first compound 0.08 µM): 0.05
relative viability ([6]; first compound 0.253 µM): 0.0643
relative viability ([6]; first compound 0.8 µM): 0.0627
relative viability ([6]; first compound 2.53 µM): 0.0654
relative viability ([6]; first compound 8 µM): 0.0685
relative viability ([7]; first compound 0.08 µM): 0.859
relative viability ([7]; first compound 0.253 µM): 0.873
relative viability ([7]; first compound 0.8 µM): 0.859
relative viability ([7]; first compound 2.53 µM): 0.869
relative viability ([7]; first compound 8 µM): 0.874
relative viability ([8]; first compound 0.08 µM): 0.65
relative viability ([8]; first compound 0.253 µM): 0.659
relative viability ([8]; first compound 0.8 µM): 0.637
relative viability ([8]; first compound 2.53 µM): 0.659
relative viability ([8]; first compound 8 µM): 0.652
relative viability ([9]; first compound 0.08 µM): 0.338
relative viability ([9]; first compound 0.253 µM): 0.341
relative viability ([9]; first compound 0.8 µM): 0.326
relative viability ([9]; first compound 2.53 µM): 0.356
relative viability ([9]; first compound 8 µM): 0.408
relative viability ([10]; first compound 0.08 µM): 0.171
relative viability ([10]; first compound 0.253 µM): 0.178
relative viability ([10]; first compound 0.8 µM): 0.159
relative viability ([10]; first compound 2.53 µM): 0.172
relative viability ([10]; first compound 8 µM): 0.147
relative viability ([11]; first compound 0.08 µM): 0.31
relative viability ([11]; first compound 0.253 µM): 0.334
relative viability ([11]; first compound 0.8 µM): 0.332
relative viability ([11]; first compound 2.53 µM): 0.312
relative viability ([11]; first compound 8 µM): 0.276
relative viability [12]: 0.852
